ChEMBL document CHEMBL1240490, “Novel carbamates as orally active acetylcholinesterase inhibitors found to improve scopolamine-induced cognition impairment: pharmacophore-based virtual screening, synthesis, and pharmacology” (J Med Chem, 2010)
Activity calls are given as the source filed them. No cut-off for these calls is given here.

Experiments:
Acetylcholinesterase [1] = biological target: T1, Acetylcholinesterase (Homo sapiens, UniProt P22303)
Description: (§1) Inhibition of human AChE by Ellmans test

Acetylcholinesterase [2] = biological target: T1, Acetylcholinesterase; remark: listed apart in the source
Description: as §1

Caenorhabditis elegans = experiment: Inhibition of ACh release in Caenorhabditis elegans N2 N2; assay type: functional, organism-based

T1 sequence (P22303 whole entry): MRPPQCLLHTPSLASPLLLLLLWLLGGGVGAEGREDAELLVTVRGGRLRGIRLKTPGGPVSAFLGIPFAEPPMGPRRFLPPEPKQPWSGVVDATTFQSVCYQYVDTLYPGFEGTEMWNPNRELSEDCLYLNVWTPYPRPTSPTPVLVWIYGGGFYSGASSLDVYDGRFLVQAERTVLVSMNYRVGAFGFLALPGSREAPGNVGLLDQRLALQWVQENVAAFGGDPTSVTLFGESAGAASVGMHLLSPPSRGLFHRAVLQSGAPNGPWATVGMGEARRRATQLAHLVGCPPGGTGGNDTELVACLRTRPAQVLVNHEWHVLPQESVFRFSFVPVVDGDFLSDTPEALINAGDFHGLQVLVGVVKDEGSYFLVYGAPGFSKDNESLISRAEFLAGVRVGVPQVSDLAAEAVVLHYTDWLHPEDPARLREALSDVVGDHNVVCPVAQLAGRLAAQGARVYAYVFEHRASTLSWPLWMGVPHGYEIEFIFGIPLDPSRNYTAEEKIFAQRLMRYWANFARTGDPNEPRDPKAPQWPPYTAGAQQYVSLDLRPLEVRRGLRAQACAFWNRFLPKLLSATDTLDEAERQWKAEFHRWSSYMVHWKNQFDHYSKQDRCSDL

| Structure (SMILES) | logIC50 (Acetylcholinesterase [1]) | IC50 (Acetylcholinesterase [2]) | inhibition (Caenorhabditis elegans) |
| --- | --- | --- | --- |
| CN1CC[C@@]2(C)c3cc(OC(=O)Nc4ccccc4)ccc3N(Cc3ccccc3)[C@@H]12 | 2.39 | 245 nM |  |
| Cc1ccccc1NC(=O)Oc1ccc2c(c1)[C@]1(C)CCNC1N2C (stereo partly drawn) | 1.23 |  |  |
| CNC(=O)Oc1ccc2c(c1)[C@@]1(C)CCN(C)C1N2 (stereo partly drawn) | 1.75 |  |  |
| Cc1ccccc1NC(=O)Oc1ccc2c(c1)[C@]1(C)CCN(CCc3ccccc3)C1N2C (stereo partly drawn) | 2.74 |  |  |
| CNC(=O)Oc1ccc2c(c1)[C@]1(C)CCNC1N2 (stereo partly drawn) | 3.17 |  |  |
| CC(C)c1ccc(NC(=O)Oc2ccc3c(c2)[C@]2(C)CCN(C)C2N3Cc2ccccc2)cc1 (stereo partly drawn) | 4.11 |  |  |
| CN1CC[C@]2(C)c3cc(OC(=O)Nc4ccccc4)ccc3N(C)C12 (stereo partly drawn) | 3.54 |  |  |
| CC(C)c1ccccc1NC(=O)Oc1ccc2c(c1)[C@]1(C)CCN(C)[C@@H]1N2C | 1.18 |  |  |
| Cc1ccccc1NC(=O)Oc1ccc2c(c1)[C@]1(C)CCN(Cc3ccccc3)C1N2Cc1ccccc1 (stereo partly drawn) | 3.25 |  |  |
| CNC(=O)Oc1ccc2c(c1)SC[C@@H]1CCN(C)[C@H]21 |  | 8.11 nM |  |
| Cc1ccc(C)c(NC(=O)Oc2ccc3c(c2)[C@]2(C)CCN(C)[C@@H]2N3C)c1 | 1.42 |  |  |
| Cc1cc(C)c(NC(=O)Oc2ccc3c(c2)[C@]2(C)CCN(C)[C@@H]2N3C)c(C)c1 | 3.11 |  |  |
| Cc1cccc(C)c1NC(=O)Oc1ccc2c(c1)[C@]1(C)CCN(C)[C@@H]1N2C | 2.89 |  |  |
| Cc1ccc(NC(=O)Oc2ccc3c(c2)[C@]2(C)CCN(C)[C@@H]2N3C)cc1C | 1.49 |  |  |
| C[C@@]12CCN(Cc3ccccc3)[C@@H]1N(Cc1ccccc1)c1ccc(OC(=O)Nc3ccccc3)cc12 | 4.61 | 41100 nM |  |
| CNC(=O)Oc1ccc2c(c1)[C@]1(C)CCN(C)[C@@H]1N2Cc1ccccc1 | 2.21 | 161 nM |  |
| Cc1cccc(NC(=O)Oc2ccc3c(c2)[C@]2(C)CCN(C)[C@@H]2N3C)c1C | 1.36 |  |  |
| CNC(=O)Oc1ccc2c(c1)[C@]1(C)CCO[C@@H]1N2C | 1.43 |  |  |
| Cc1ccc(NC(=O)Oc2ccc3c(c2)[C@]2(C)CCN(C)[C@@H]2N3C)c(C)c1 | 1.15 |  |  |
| Cc1ccccc1NC(=O)Oc1ccc2c(c1)[C@]1(C)CCO[C@@H]1N2C | 1.11 |  |  |

| Structure (SMILES) | logIC50 (Acetylcholinesterase [1]) | IC50 (Acetylcholinesterase [2]) | inhibition (Caenorhabditis elegans) |
| --- | --- | --- | --- |
| CNC(=O)Oc1ccc2c(c1)c(C)cn2Nc1ccncc1F |  | 100 nM |  |
| CCOC(=O)C1=CN(C)c2cccc(OC(=O)N(C)C)c2C1 |  | 7 nM |  |
| Cc1ccccc1NC(=O)Oc1ccc2c(c1)[C@]1(C)CCN(C)[C@@H]1N2C [TOLSERINE] | 1 | 40 nM |  |
| Cc1ccccc1NC(=O)Oc1ccc2c(c1)[C@]1(C)CCN(C)C1N2Cc1ccccc1 (stereo partly drawn) | 2 |  |  |
| CN1CC[C@]2(C)c3cc(OC(=O)Nc4ccccc4)ccc3N(Cc3ccccc3)C12 (stereo partly drawn) | 4.05 |  |  |
| C[C@H](c1cccc(OC(=O)N(C)C)c1)N1CCCCC1 |  | 32 nM |  |
| CCNC(=O)Oc1ccc2c(c1)[C@]1(C)CCN(C)[C@@H]1N2C | 1.97 |  |  |
| CNC(=O)Oc1ccc2c(c1)[C@]1(C)CCN(Cc3ccccc3)C1N2Cc1ccccc1 (stereo partly drawn) | 3.04 |  |  |
| CCNC(=O)Oc1ccc2c(c1)[C@]1(C)CCO[C@@H]1N2C | 1.91 |  |  |
| CN1CC[C@]2(C)c3cc(OC(=O)Nc4ccccc4)ccc3NC12 (stereo partly drawn) | 3.75 |  |  |
| CNC(=O)Oc1ccc2c(c1)OC[C@@H]1CCN(C)[C@H]21 |  | 30 nM |  |
| CNC(=O)Oc1ccc2c(c1)[C@]1(C)CCN(C)[C@@H]1N2C=O | 3.4 | 2500 nM |  |
| CCNC(=O)Oc1ccc2c(c1)C1(C)COC(C1)O2 (stereo not drawn) | 2.56 |  |  |
| CN(C(=O)Oc1ccc2c(c1)[C@]1(C)CCN(C)[C@@H]1N2C)c1ccccc1 | 2.46 | 285 nM |  |
| Cc1ccc(NC(=O)Oc2ccc3c(c2)[C@]2(C)CCN(C)[C@@H]2N3C)cc1 | 2.15 |  |  |
| CCc1cccc(CC)c1NC(=O)Oc1ccc2c(c1)[C@]1(C)CCN(C)[C@@H]1N2C | 2.84 | 690 nM |  |
| CC(C)c1ccc(NC(=O)Oc2ccc3c(c2)C2(C)COC(O3)O2)cc1 (stereo not drawn) | 3.63 | 4300 nM |  |
| CC(C)c1ccc(NC(=O)Oc2ccc3c(c2)[C@]2(C)CCNC2N3C)cc1 (stereo partly drawn) | 2.51 |  |  |
| CNC(=O)Oc1ccc2c(c1)CC[C@@H]1CCN(C)[C@H]21 |  | 17.3 nM |  |
| Cc1cc(C)cc(NC(=O)Oc2ccc3c(c2)[C@]2(C)CCN(C)[C@@H]2N3C)c1 | 1.89 |  |  |

| Structure (SMILES) | logIC50 (Acetylcholinesterase [1]) | IC50 (Acetylcholinesterase [2]) | inhibition (Caenorhabditis elegans) |
| --- | --- | --- | --- |
| CN(C)Cc1cc2c(cc1OC(=O)Nc1ccccc1)[C@]1(C)CCN(C)[C@@H]1N2C | 2.89 | 780 nM |  |
| CC(C)c1ccc(NC(=O)Oc2ccc3c(c2)[C@]2(C)CCO[C@@H]2N3C)cc1 | 3.59 |  |  |
| CC(C)c1ccc(NC(=O)Oc2ccc3c(c2)[C@]2(C)CCN(C)C2N3)cc1 (stereo partly drawn) | 3.31 |  |  |
| CCCCCCNC(=O)Oc1ccc2c(c1)CCCN2Cc1ccccc1 |  |  | Active |
| CNC(=O)Oc1ccc2c(c1)[C@]1(C)CCN(C)C1N2Cc1ccccc1 (stereo partly drawn) | 2.21 |  |  |
| C[C@]12CCNC1Nc1ccc(OC(=O)Nc3ccccc3)cc12 (stereo partly drawn) | 2.36 |  |  |
| CNC(=O)Oc1ccc2c(c1)[C@]1(C)CCN(Cc3ccccc3)[C@@H]1N2Cc1ccccc1 | 3.55 | 3560 nM |  |
| O=C(Nc1ccccc1Cl)Oc1ccc2c(c1)CCCN2Cc1ccccc1 |  | 3310 nM |  |
| Cc1ccccc1NC(=O)Oc1ccc2c(c1)[C@]1(C)CCN(C)[C@@H]1N2 | 1.6 | 40 nM |  |
| CN1CC[C@@]2(C)c3cc(OC(=O)Nc4ccccc4)ccc3N(C=O)[C@@H]12 | 2.52 | 330 nM |  |
| CNC(=O)Oc1ccc2c(c1)[C@]1(C)CCN(C)[C@@H]1N2 | 1.75 | 56.7 nM |  |
| CNC(=O)Oc1ccc2c(c1)[C@@]1(C)CCN(C)C1N2Cc1ccccc1 (stereo partly drawn) | 3.45 |  |  |
| CCc1ccccc1NC(=O)Oc1ccc2c(c1)[C@]1(C)CCN(C)[C@@H]1N2C | 1 |  |  |
| CN1CC[C@@]2(C)c3cc(OC(=O)N4CCc5ccccc5C4)ccc3N(C)[C@@H]12 [QUILOSTIGMINE] |  | 148 nM |  |
| Cc1ccccc1NC(=O)Oc1ccc2c(c1)[C@]1(C)CCN[C@@H]1N2 | 2.92 | 830 nM |  |
| Cc1cc2c(cc1OC(=O)Nc1ccccc1)[C@]1(C)CCN(C)[C@@H]1N2C | 2.41 |  |  |
| Cc1ccccc1NC(=O)Oc1ccc2c(c1)C1(C)COC(C1)O2 (stereo not drawn) | 1.75 |  |  |
| CCNC(=O)Oc1ccc2c(c1)C1(C)COC(O2)O1 (stereo not drawn) | 2.59 | 387 nM |  |
